Source: ChEMBL document CHEMBL2413072, “Synthesis and in vitro anticancer studies of novel C-2 arylidene congeners of lantadenes” (2013)

Experiments:
Assay type in all cases: functional
[1] = Growth inhibition of human Hs 578T cells assessed as cell growth at 10 uM by sulforhodamine B assay; conditions: read-out: Activity
[2] = system: RPMI-8226; assay: Growth inhibition of human RPMI8226 cells assessed as growth inhibition at 10 uM by sulforhodamine B assay; conditions: read-out: GI
[3] = system: PC-3; assay: Growth inhibition of human PC3 cells assessed as growth inhibition at 10 uM by sulforhodamine B assay; conditions: read-out: GI
[4] = system: OVCAR-8; assay: Growth inhibition of human OVCAR8 cells assessed as growth inhibition at 10 uM by sulforhodamine B assay; conditions: read-out: GI
[5] = system: UO-31; assay: Growth inhibition of human UO31 cells assessed as cell growth at 10 uM by sulforhodamine B assay; conditions: read-out: Activity
[6] = system: MDA-MB-468; assay: Growth inhibition of human MDA-MB-468 cells assessed as cell growth at 10 uM by sulforhodamine B assay; conditions: read-out: Activity
[7] = system: MOLT-4; assay: Growth inhibition of human MOLT4 cells assessed as growth inhibition at 10 uM by sulforhodamine B assay; conditions: read-out: GI
[8] = system: DU-145; assay: Growth inhibition of human DU145 cells assessed as growth inhibition at 10 uM by sulforhodamine B assay; conditions: read-out: GI
[9] = system: SK-MEL-2; assay: Growth inhibition of human SK-MEL-2 cells assessed as growth inhibition at 10 uM by sulforhodamine B assay; conditions: read-out: GI
[10] = system: LOX IMVI; assay: Growth inhibition of human LOXIMVI cells assessed as growth inhibition at 10 uM by sulforhodamine B assay; conditions: read-out: GI
[11] = system: M14; assay: Growth inhibition of human M14 cells assessed as cell growth at 10 uM by sulforhodamine B assay; conditions: read-out: Activity
[12] = system: SF-268; assay: Growth inhibition of human SF268 cells assessed as cell growth at 10 uM by sulforhodamine B assay; conditions: read-out: Activity
[13] = system: OVCAR-4; assay: Growth inhibition of human OVCAR4 cells assessed as growth inhibition at 10 uM by sulforhodamine B assay; conditions: read-out: GI
[14] = system: SK-OV-3; assay: Growth inhibition of human SKOV3 cells assessed as growth inhibition at 10 uM by sulforhodamine B assay; conditions: read-out: GI
[15] = Growth inhibition of human HCC2998 cells assessed as growth inhibition at 10 uM by sulforhodamine B assay; conditions: HCC 2998, read-out: GI
[16] = system: SK-MEL-5; assay: Growth inhibition of human SK-MEL-5 cells assessed as growth inhibition at 10 uM by sulforhodamine B assay; conditions: read-out: GI
[17] = system: OVCAR-3; assay: Growth inhibition of human OVCAR3 cells assessed as growth inhibition at 10 uM by sulforhodamine B assay; conditions: read-out: GI
[18] = system: MDA-MB-435; assay: Growth inhibition of human MDA-MB-435 cells assessed as growth inhibition at 10 uM by sulforhodamine B assay; conditions: read-out: GI
[19] = system: MCF7; assay: Growth inhibition of human MCF7 cells assessed as growth inhibition at 10 uM by sulforhodamine B assay; conditions: read-out: GI
[20] = system: UACC-257; assay: Growth inhibition of human UACC257 cells assessed as cell growth at 10 uM by sulforhodamine B assay; conditions: read-out: Activity
[21] = Growth inhibition of human EKVX cells assessed as cell growth at 10 uM by sulforhodamine B assay; conditions: read-out: Activity
[22] = system: OVCAR-5; assay: Growth inhibition of human OVCAR5 cells assessed as growth inhibition at 10 uM by sulforhodamine B assay; conditions: read-out: GI
[23] = system: SF-295; assay: Growth inhibition of human SF295 cells assessed as growth inhibition at 10 uM by sulforhodamine B assay; conditions: read-out: GI
[24] = system: SF-539; assay: Growth inhibition of human SF539 cells assessed as cell growth at 10 uM by sulforhodamine B assay; conditions: read-out: Activity
[25] = Growth inhibition of human NCI-ADR-RES cells assessed as cell growth at 10 uM by sulforhodamine B assay; conditions: read-out: Activity
[26] = system: UACC-257; assay: Growth inhibition of human UACC257 cells assessed as growth inhibition at 10 uM by sulforhodamine B assay; conditions: read-out: GI
[27] = Growth inhibition of human HCC2998 cells assessed as cell growth at 10 uM by sulforhodamine B assay; conditions: HCC 2998, read-out: Activity
[28] = system: A498; assay: Growth inhibition of human A498 cells assessed as cell growth at 10 uM by sulforhodamine B assay; conditions: read-out: Activity
[29] = system: Malme-3M; assay: Growth inhibition of human MALME-3M cells assessed as cell growth at 10 uM by sulforhodamine B assay; conditions: read-out: Activity
[30] = system: CAKI-1; assay: Growth inhibition of human CAKI-1 cells assessed as cell growth at 10 uM by sulforhodamine B assay; conditions: read-out: Activity
[31] = system: HT-29; assay: Growth inhibition of human HT-29 cells assessed as cell growth at 10 uM by sulforhodamine B assay; conditions: read-out: Activity
[32] = system: HT-29; assay: Growth inhibition of human HT-29 cells assessed as growth inhibition at 10 uM by sulforhodamine B assay; conditions: read-out: GI
[33] = system: T47D; assay: Growth inhibition of human T47D cells assessed as growth inhibition at 10 uM by sulforhodamine B assay; conditions: read-out: GI
[34] = system: ACHN; assay: Growth inhibition of human ACHN cells assessed as cell growth at 10 uM by sulforhodamine B assay; conditions: read-out: Activity
[35] = system: OVCAR-8; assay: Growth inhibition of human OVCAR8 cells assessed as cell growth at 10 uM by sulforhodamine B assay; conditions: read-out: Activity
[36] = system: MDA-MB-468; assay: Growth inhibition of human MDA-MB-468 cells assessed as growth inhibition at 10 uM by sulforhodamine B assay; conditions: read-out: GI
[37] = system: SF-539; assay: Growth inhibition of human SF539 cells assessed as growth inhibition at 10 uM by sulforhodamine B assay; conditions: read-out: GI
[38] = system: HOP-62; assay: Growth inhibition of human HOP62 cells assessed as growth inhibition at 10 uM by sulforhodamine B assay; conditions: read-out: GI
[39] = system: MDA-MB-231; assay: Growth inhibition of human MDA-MB-231 cells assessed as growth inhibition at 10 uM by sulforhodamine B assay; conditions: read-out: GI
[40] = system: KM12; assay: Growth inhibition of human KM12 cells assessed as cell growth at 10 uM by sulforhodamine B assay; conditions: read-out: Activity
[41] = system: SNB-75; assay: Growth inhibition of human SNB75 cells assessed as growth inhibition at 10 uM by sulforhodamine B assay; conditions: read-out: GI
[42] = system: NCI-H226; assay: Growth inhibition of human NCI-H226 cells assessed as growth inhibition at 10 uM by sulforhodamine B assay; conditions: read-out: GI
[43] = system: LOX IMVI; assay: Growth inhibition of human LOXIMVI cells assessed as cell growth at 10 uM by sulforhodamine B assay; conditions: read-out: Activity
[44] = system: SK-OV-3; assay: Growth inhibition of human SKOV3 cells assessed as cell growth at 10 uM by sulforhodamine B assay; conditions: read-out: Activity
[45] = system: CCRF-CEM; assay: Growth inhibition of human CCRF-CEM cells assessed as growth inhibition at 10 uM by sulforhodamine B assay; conditions: read-out: GI
[46] = system: CAKI-1; assay: Growth inhibition of human CAKI-1 cells assessed as growth inhibition at 10 uM by sulforhodamine B assay; conditions: read-out: GI
[47] = system: U-251; assay: Growth inhibition of human U251 cells assessed as cell growth at 10 uM by sulforhodamine B assay; conditions: read-out: Activity
[48] = system: OVCAR-3; assay: Growth inhibition of human OVCAR3 cells assessed as cell growth at 10 uM by sulforhodamine B assay; conditions: read-out: Activity
[49] = system: HCT-15; assay: Growth inhibition of human HCT15 cells assessed as cell growth at 10 uM by sulforhodamine B assay; conditions: read-out: Activity

CC1(C)C[C@@H](O)[C@]2(C(=O)O)CC[C@]3(C)C(=CC[C@@H]4[C@@]5(C)CC[C@H](O)C(C)(C)[C@@H]5CC[C@]43C)[C@@H]2C1
growth at 10 µM [1]: 102%
inhibition of growth at 10 µM [2]: 10.7%
inhibition of growth at 10 µM [3]: 23.5%
inhibition of growth at 10 µM [4]: < 10%
growth at 10 µM [5]: 85.5%
growth at 10 µM [6]: 111%
inhibition of growth at 10 µM [7]: 21.7%
inhibition of growth at 10 µM [8]: < 10%
inhibition of growth at 10 µM [9]: < 10%
inhibition of growth at 10 µM [10]: 11.1%
growth at 10 µM [11]: 93.6%
growth at 10 µM [12]: 102%
inhibition of growth at 10 µM [13]: < 10%
inhibition of growth at 10 µM [14]: < 10%
inhibition of growth at 10 µM [15]: < 10%
inhibition of growth at 10 µM [16]: < 10%
inhibition of growth at 10 µM [17]: < 10%
inhibition of growth at 10 µM [18]: < 10%
inhibition of growth at 10 µM [19]: < 10%
growth at 10 µM [20]: 107%
growth at 10 µM [21]: 104%
inhibition of growth at 10 µM [22]: < 10%
inhibition of growth at 10 µM [23]: < 10%
growth at 10 µM [24]: 106%
growth at 10 µM [25]: 104%
inhibition of growth at 10 µM [26]: < 10%
growth at 10 µM [27]: 109%
growth at 10 µM [28]: 102%
growth at 10 µM [29]: 102%
growth at 10 µM [30]: 91.8%
growth at 10 µM [31]: 109%
inhibition of growth at 10 µM [32]: < 10%
inhibition of growth at 10 µM [33]: < 10%
growth at 10 µM [34]: 102%
growth at 10 µM [35]: 93.7%
inhibition of growth at 10 µM [36]: 88.8%
inhibition of growth at 10 µM [37]: < 10%
inhibition of growth at 10 µM [38]: < 10%
inhibition of growth at 10 µM [39]: < 10%
growth at 10 µM [40]: 90.1%
inhibition of growth at 10 µM [41]: < 10%
inhibition of growth at 10 µM [42]: < 10%
growth at 10 µM [43]: 89%
growth at 10 µM [44]: 101%
inhibition of growth at 10 µM [45]: 11.6%
inhibition of growth at 10 µM [46]: 15.2%
growth at 10 µM [47]: 91.8%
growth at 10 µM [48]: 101%
growth at 10 µM [49]: 96.5%
